Values quoted from earlier work in patent US9789102B2, “H3 receptor antagonist for use in the treatment of alzheimer's disease” (SANOFI, priority 2012, dated 2017).

Tested on: protein tau hyperphosphorylation
Settings: 2-week treatment; TAPP transgenic mice; histopathological studies; cited from earlier work

C[C@@H]1CCCN1CCc1cc2cc(-c3ccc(C#N)cc3)ccc2o1 [ABT-239]
protein tau hyperphosphorylation in the spinal cord and hippocampus: effect
